# Tests used:
# [1] = system: rat ventral mesencephalan neurons; experiment: [3H]Dopamine cell culture assay (6-OHDA neurotoxicity); type: cell-based; details: approximately 3×10^−6 M compound; 6-OHDA 30 μM; uptake 22 hrs after exposure; FIG. 1
# Description: Cultures of dopaminergic neurons were prepared according to a modification of the procedure described by Raymon and Leslie (J. Neurochem. 62, 1015-1024, 1994). Time-mated pregnant rats were sacrificed on embyronic day 14-15 (crown rump length 11-12 mm) and the embryos removed by cesarean section. The ventral mesencephalon, containing the dopaminergic neurons, was dissected from each embryo. Tissue pieces from approximately 48 embryos were pooled and dissociated both enzymatically and mechanically. An aliquot from the resulting cell suspension was counted and the cells were plated in high glucose DMEM/F12 culture medium with 10% fetal bovine serum at a density of 1×10^5 cells/well of a Biocoat poly-D-lysine-coated 96-well plate. The day following plating was considered 1 day in vitro (DIV). Cells were maintained in a stable environment at 37° C., 95% humidity, and 5% CO2. A partial medium change was performed at 3 DIV. […]
# [^3H]Dopamine uptake is used as a measure of the health and integrity of dopaminergic neurons in culture (Prochiantz et al., PNAS 76: 5387-5391, 1979). […] Briefly, cells treated with 6-OHDA in the presence and absence of Compound CC were assessed in the uptake assay 22 hrs after exposure to 6-OHDA. […] Radioactivity was removed and the cultures were washed 3× with ice cold PBS. […]
# [2] = Brain-blood plasma distribution in vivo; set-up: species or system Sprague-Dawley rats; details: rat, 10 mg/kg intravenously, 2 hr post-dose
# Description: Compound CC was administered intravenously (10 mg/kg) into the veins of Sprague-Dawley rats. After 2 hr, blood samples were obtained from the animals and their vascular systems were perfused with approximately 100 mL of saline to rid their brains of blood. The brains were removed from the animals, weighed, and homogenized in a 50 mL conical tube containing 10 equivalents (w/v) of methanol/saline (1:1) using a Tissue Tearer (Fischer Scientific). The homogenized material was extracted by adding 600 μL of cold methanol to 250 μL of brain homogenate vortexed for 30 sec and subjected to centrifugation for 5 min. After centrifugation, 600 μL of the resulting supernatant was transferred to a clean tube and evaporated at room temperature under reduced pressure to provide a pellet. […] The brain homogenate analysis samples, plasma analysis samples, and standard analysis samples were analyzed and compared using HPLC by injecting 100 μL of a sample onto a 5 μm C-18 Luna column (4.6 mm×150 mm, commercially available from Phenomenex of Torrance, Calif.) and eluting at 1 mL/min with a linear gradient of 30% aqueous acetonitrile containing 0.1% trifluoroacetic acid to 90% aqueous acetonitrile containing 0.1% trifluoroacetic acid over 8 minutes and holding at 90% aqueous acetonitrile containing 0.1% trifluoroacetic acid for 3 min. with absorbance detection at 450 nm. […]
# [3] = Solubility in aqueous media; type: physicochemical
smiles,measurement,setting,value
Nc1ccc2snc3c2c1C(=O)c1ccccc1-3 [Compound CC],"protection of neurons from 6-OHDA, by [3H]dopamine uptake",[1],protects rat ventral mesencephalan neurons from the toxic effects of 6-OHDA
same,brain-drug concentration,[2],approximately 65 nmole/g
same,solubility in aqueous media,[3],limited solubility

# Source: patent US6987184B2, “Isothiazoloanthrones, isoxazoloanthrones, isoindolanthrones and derivatives thereof as JNK inhibitors and compositions and methods related” (Signal Pharmaceuticals, LLC, priority 2001, dated 2006)
